Measurements taken from patent US20020137929A1, “1 - (3-heterocyclylphenyl) isothiourea, -isourea, -guanidine and -amidine herbicidal agents” (Intellectual Property Department, BASF Aktiengesellschaft, priority 1998, published 2002).

How the values were obtained:
[1] = test system: TRZAWR (Wheat, Winter, cv Riband); assay: Postemergence herbicidal evaluation; assay type: in vivo, Triticum aestivum; details: for TRZAWR herbicidal rating: postemergence
How it was run: (§1)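 Herbicidal effect was judged by eye on a 0–9 scale covering stand, vigor, deformity, size and chlorosis, compared with controls, four to five weeks after seedlings about two weeks old were sprayed (40 psi, ~0.0156–0.500 kg/ha).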

[2] = test system: IPOHE (Morningglory, Ivyleaf); assay: Preemergence herbicidal evaluation; assay type: in vivo, Ipomoea hederacea; details: rated 4-5 weeks after treatment
How it was run: (§2)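 Steps: mix seeds into potting soil; plant atop ~1 inch soil; spray compound in aqueous acetone (~0.0156-0.500 kg/ha equivalent); maintain in greenhouse with watering; rate visually 0-9 versus control at 4-5 weeks.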

[3] = test system: ECHORC (Watergrass (Calif.)); assay: Preemergence weed control under flooded paddy conditions; assay type: in vivo, Echinochloa oryzoides; details: rated 3-4 weeks after treatment
How it was run: (§3)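 Herbicidal effect is scored visually on a 0-9 scale against an untreated control, three to four weeks after compounds are pipetted into the flood water (1.5 to 3 cm deep) over seeds planted in silt loam at 0.5 cm depth. Rates: about 0.0313 to 0.500 kg/ha.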

ECHCG (Barnyardgrass) = assay: Preemergence herbicidal evaluation; assay type: in vivo, Echinochloa crus-galli; details: rated 4-5 weeks after treatment
How it was run: as §2

[4] = test system: IPOHE (Morningglory, Ivyleaf); assay: Postemergence herbicidal evaluation; assay type: in vivo, Ipomoea hederacea; details: for IPOHE herbicidal rating: postemergence
How it was run: as §1

GALAP (Galium) = assay: Postemergence herbicidal evaluation; assay type: in vivo, Galium aparine; details: for GALAP herbicidal rating: postemergence
How it was run: as §1

ABUTH (Velvetleaf) = assay: Preemergence herbicidal evaluation; assay type: in vivo, Abutilon theophrasti; details: rated 4-5 weeks after treatment
How it was run: as §2

[5] = test system: SAGPY (Arrowhead (Pygmaea)); assay: Postemergence weed control under flooded paddy conditions; assay type: in vivo, Sagittaria pygmaea; details: postemergence weeds
How it was run: (§4)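 Injury ratings (0–9 scale covering stand, vigor, malformation, size, chlorosis and overall appearance versus control) were made three to four weeks after treatment. Test material, about 0.0313 to 0.500 kg/ha a.i. in 50/50 v/v aqueous/acetone, was added to flood water 1.5 to 3 cm deep over 3 to 5 cm weeds and 1.5 to 2.5 leaf rice.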

CYPIR (Rice Flatsedge) = assay: Preemergence weed control under flooded paddy conditions; assay type: in vivo, Cyperus iria; details: rated 3-4 weeks after treatment
How it was run: as §3

[6] = test system: ECHORC (Watergrass (Calif.)); assay: Postemergence weed control under flooded paddy conditions; assay type: in vivo, Echinochloa oryzoides; details: postemergence weeds
How it was run: as §4

ZEAMX (Corn, Field) = assay: Preemergence herbicidal evaluation; assay type: in vivo, Zea mays; details: rated 4-5 weeks after treatment
How it was run: as §2

SETVI (Foxtail, Green) [7] = assay: Preemergence herbicidal evaluation; assay type: in vivo, Setaria viridis; details: rated 4-5 weeks after treatment
How it was run: as §2

SETVI (Foxtail, Green) [8] = assay: Postemergence herbicidal evaluation; assay type: in vivo, Setaria viridis; details: for SETVI herbicidal rating: postemergence
How it was run: as §1

[9] = Rate 0.0313 kg/ha, rated 3 to 4 weeks after treatment
[10] = Rate 0.0625 kg/ha, rated 3 to 4 weeks after treatment
[11] = Rate 0.1250 kg/ha, rated 3 to 4 weeks after treatment
[12] = Rate 0.2500 kg/ha, rated 3 to 4 weeks after treatment
[13] = rate 0.0313 kg/ha, 3-4 weeks after treatment
[14] = rate 0.0625 kg/ha, 3-4 weeks after treatment
[15] = rate 0.1250 kg/ha, 3-4 weeks after treatment
[16] = rate 0.2500 kg/ha, 3-4 weeks after treatment

## C[C@H](C(=O)O)N1C(=O)CSC1=Nc1cc(-n2c(=O)cc(C(F)(F)F)n(C)c2=O)c(F)cc1Cl [Compound 70, 2-{{2-Chloro-5-[3,6-dihydro-3-methyl-2,6-dioxo-4-(trifluoromethyl)-1(2H)-pyrimidinyl]-4-fluoro-phenyl}imino}-α-methyl-4-oxo-3-thiazolidineacetic acid, D-]
[1]; rate 0.0158 kg/ha
  TRZAWR herbicidal rating: 2.5
[1]; rate 0.0315 kg/ha
  TRZAWR herbicidal rating: 4.0
[1]; rate 0.0630 kg/ha
  TRZAWR herbicidal rating: 5.5
[2]; rate 0.0156 kg/ha
  Preemergence herbicidal rating IPOHE: 0.0
[2]; rate 0.0313 kg/ha
  Preemergence herbicidal rating IPOHE: 0.0
[2]; rate 0.0625 kg/ha
  Preemergence herbicidal rating IPOHE: 0.0
[2]; rate 0.1250 kg/ha
  Preemergence herbicidal rating IPOHE: 1.0
[2]; rate 0.2500 kg/ha
  Preemergence herbicidal rating IPOHE: 5.0
[3]; 0.0313 kg/ha
  ECHORC herbicidal effect rating: 0.0
[3]; 0.0625 kg/ha
  ECHORC herbicidal effect rating: 0.0
[3]; 0.1250 kg/ha
  ECHORC herbicidal effect rating: 0.0
[3]; 0.2500 kg/ha
  ECHORC herbicidal effect rating: 0.0
ECHCG (Barnyardgrass); rate 0.0156 kg/ha
  Preemergence herbicidal rating ECHCG: 0.0
ECHCG (Barnyardgrass); rate 0.0313 kg/ha
  Preemergence herbicidal rating ECHCG: 0.0
ECHCG (Barnyardgrass); rate 0.0625 kg/ha
  Preemergence herbicidal rating ECHCG: 0.0
ECHCG (Barnyardgrass); rate 0.1250 kg/ha
  Preemergence herbicidal rating ECHCG: 1.0
ECHCG (Barnyardgrass); rate 0.2500 kg/ha
  Preemergence herbicidal rating ECHCG: 1.0
[4]; rate 0.0158 kg/ha
  IPOHE herbicidal rating: 9.0
[4]; rate 0.0315 kg/ha
  IPOHE herbicidal rating: 9.0
[4]; rate 0.0630 kg/ha
  IPOHE herbicidal rating: 9.0
GALAP (Galium); rate 0.0158 kg/ha
  GALAP herbicidal rating: 0.0
GALAP (Galium); rate 0.0315 kg/ha
  GALAP herbicidal rating: 0.0
GALAP (Galium); rate 0.0630 kg/ha
  GALAP herbicidal rating: 3.0
ABUTH (Velvetleaf); rate 0.0156 kg/ha
  Preemergence herbicidal rating ABUTH: 0.0
ABUTH (Velvetleaf); rate 0.0313 kg/ha
  Preemergence herbicidal rating ABUTH: 0.0
ABUTH (Velvetleaf); rate 0.1250 kg/ha
  Preemergence herbicidal rating ABUTH: 6.0
ABUTH (Velvetleaf); rate 0.2500 kg/ha
  Preemergence herbicidal rating ABUTH: 9.0
[5]; [9]
  Herbicidal rating SAGPY: 4.0
[5]; [10]
  Herbicidal rating SAGPY: 4.0
[5]; [11]
  Herbicidal rating SAGPY: 4.0
[5]; [12]
  Herbicidal rating SAGPY: 4.0
CYPIR (Rice Flatsedge); 0.0313 kg/ha
  CYPIR herbicidal effect rating: 0.0
CYPIR (Rice Flatsedge); 0.0625 kg/ha
  CYPIR herbicidal effect rating: 2.0
CYPIR (Rice Flatsedge); 0.1250 kg/ha
  CYPIR herbicidal effect rating: 2.0
CYPIR (Rice Flatsedge); 0.2500 kg/ha
  CYPIR herbicidal effect rating: 2.0
[6]; [9]
  Herbicidal rating ECHORC: 0.0
[6]; [10]
  Herbicidal rating ECHORC: 0.0
[6]; [11]
  Herbicidal rating ECHORC: 0.0
[6]; [12]
  Herbicidal rating ECHORC: 0.0
ZEAMX (Corn, Field); rate 0.0156 kg/ha
  Preemergence herbicidal rating ZEAMX: 0.0
ZEAMX (Corn, Field); rate 0.0313 kg/ha
  Preemergence herbicidal rating ZEAMX: 0.0
ZEAMX (Corn, Field); rate 0.0625 kg/ha
  Preemergence herbicidal rating ZEAMX: 0.0
ZEAMX (Corn, Field); rate 0.1250 kg/ha
  Preemergence herbicidal rating ZEAMX: 1.0
ZEAMX (Corn, Field); rate 0.2500 kg/ha
  Preemergence herbicidal rating ZEAMX: 3.0
SETVI (Foxtail, Green) [7]; rate 0.0156 kg/ha
  Preemergence herbicidal rating SETVI: 0.0
SETVI (Foxtail, Green) [7]; rate 0.0313 kg/ha
  Preemergence herbicidal rating SETVI: 0.0
SETVI (Foxtail, Green) [7]; rate 0.0625 kg/ha
  Preemergence herbicidal rating SETVI: 2.0
SETVI (Foxtail, Green) [7]; rate 0.1250 kg/ha
  Preemergence herbicidal rating SETVI: 9.0
SETVI (Foxtail, Green) [7]; rate 0.2500 kg/ha
  Preemergence herbicidal rating SETVI: 9.0
SETVI (Foxtail, Green) [8]; rate 0.0158 kg/ha
  SETVI herbicidal rating: 1.0
SETVI (Foxtail, Green) [8]; rate 0.0315 kg/ha
  SETVI herbicidal rating: 2.0
SETVI (Foxtail, Green) [8]; rate 0.0630 kg/ha
  SETVI herbicidal rating: 9.0

## CCOC(=O)CN1C(=O)C(Cc2ccccc2OC)SC1=Nc1cc(-n2c(=O)cc(C(F)(F)F)n(C)c2=O)c(F)cc1Cl (stereo not drawn) [Compound 37, Ethyl 2-{{2-chloro-5-[3,6-dihydro-3-methyl-2,6-dioxo-4-(trifluoromethyl)-1(2H)-pyrimidinyl]-4-fluorophenyl}imino}-5-(o-methoxybenzyl)-4-oxo-3-thiazolidineacetate]
[1]; Rate 0.0158 kg/ha
  Postemergence herbicidal rating TRZAWR: 2.0
[1]; Rate 0.0315 kg/ha
  Postemergence herbicidal rating TRZAWR: 2.0
[1]; Rate 0.0630 kg/ha
  Postemergence herbicidal rating TRZAWR: 2.0
[2]; rate 0.1250 kg/ha
  Preemergence herbicidal rating IPOHE: 0.0
[2]; rate 0.2500 kg/ha
  Preemergence herbicidal rating IPOHE: 0.0
[3]; 0.0313 kg/ha
  Herbicidal rating ECHORC: 4.0
[3]; 0.0625 kg/ha
  Herbicidal rating ECHORC: 6.0
[3]; 0.1250 kg/ha
  Herbicidal rating ECHORC: 7.0
[3]; 0.2500 kg/ha
  Herbicidal rating ECHORC: 7.0
ECHCG (Barnyardgrass); rate 0.1250 kg/ha
  Preemergence herbicidal rating ECHCG: 0.0
ECHCG (Barnyardgrass); rate 0.2500 kg/ha
  Preemergence herbicidal rating ECHCG: 0.0
[4]; Rate 0.0158 kg/ha
  Postemergence herbicidal rating IPOHE: 9.0
[4]; Rate 0.0315 kg/ha
  Postemergence herbicidal rating IPOHE: 9.0
[4]; Rate 0.0630 kg/ha
  Postemergence herbicidal rating IPOHE: 9.0
GALAP (Galium); Rate 0.0158 kg/ha
  Postemergence herbicidal rating GALAP: 1.0
GALAP (Galium); Rate 0.0315 kg/ha
  Postemergence herbicidal rating GALAP: 3.0
GALAP (Galium); Rate 0.0630 kg/ha
  Postemergence herbicidal rating GALAP: 4.0
ABUTH (Velvetleaf); rate 0.1250 kg/ha
  Preemergence herbicidal rating ABUTH: 0.0
ABUTH (Velvetleaf); rate 0.2500 kg/ha
  Preemergence herbicidal rating ABUTH: 3.0
[5]; [13]
  Herbicidal rating SAGPY: 0.0
[5]; [14]
  Herbicidal rating SAGPY: 0.0
[5]; [15]
  Herbicidal rating SAGPY: 0.0
[5]; [16]
  Herbicidal rating SAGPY: 3.0
CYPIR (Rice Flatsedge); 0.0313 kg/ha
  Herbicidal rating CYPIR: 0.0
CYPIR (Rice Flatsedge); 0.0625 kg/ha
  Herbicidal rating CYPIR: 0.0
CYPIR (Rice Flatsedge); 0.1250 kg/ha
  Herbicidal rating CYPIR: 0.0
CYPIR (Rice Flatsedge); 0.2500 kg/ha
  Herbicidal rating CYPIR: 0.0
[6]; [13]
  Herbicidal rating ECHORC: 4.0
[6]; [14]
  Herbicidal rating ECHORC: 6.0
[6]; [15]
  Herbicidal rating ECHORC: 7.0
[6]; [16]
  Herbicidal rating ECHORC: 7.0
ZEAMX (Corn, Field); rate 0.1250 kg/ha
  Preemergence herbicidal rating ZEAMX: 0.0
ZEAMX (Corn, Field); rate 0.2500 kg/ha
  Preemergence herbicidal rating ZEAMX: 0.0
SETVI (Foxtail, Green) [7]; rate 0.1250 kg/ha
  Preemergence herbicidal rating SETVI: 0.0
SETVI (Foxtail, Green) [7]; rate 0.2500 kg/ha
  Preemergence herbicidal rating SETVI: 0.0
SETVI (Foxtail, Green) [8]; Rate 0.0158 kg/ha
  Postemergence herbicidal rating SETVI: 0.0
SETVI (Foxtail, Green) [8]; Rate 0.0315 kg/ha
  Postemergence herbicidal rating SETVI: 0.0
SETVI (Foxtail, Green) [8]; Rate 0.0630 kg/ha
  Postemergence herbicidal rating SETVI: 0.0
